Some test systems named below: COLO 205; OVCAR-3; TK-10; HOP-92; OVCAR-4; SK-MEL-5; IGROV-1; HL-60; LOX IMVI; CCRF-CEM; NCI-H23; OVCAR-5; HOP-62; NCI-H226; KM12; 786-0; EKVX; MCF7; SK-MEL-28; T47D.
What all share (experiment): DTP human tumour cell line panel, 48 h

The structures appear in SMILES notation.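 Results reflect a 48-hour exposure of cells in 96-well plates to compound at five concentrations. Abbreviation: GI50, concentration required for 50% inhibition of growth.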 Activity calls are given as the source filed them. Cut-off read from the data, not from the text of the source: active = GI50 up to about 1.1 µM and inactive = higher. Where only a bound is given, the exact number is not on record here.

The GI50 is the concentration giving 50% growth inhibition. `Cc1cc(C(=C2C=CC(=N)C=C2)c2ccc(N)cc2)ccc1N` [FUCHSIN, BASIC]: the 50% growth inhibitory concentration (GI50) was 1.01 µM (active) with COLO 205; 3.96 µM (inactive) with OVCAR-3; 8.97 µM (inactive) in the assay on TK-10; 6.81 µM (inactive) in the assay with HOP-92; 8.43 µM (inactive) with OVCAR-4; 1.46 µM (inactive) with SK-MEL-5. For the same compound, the GI50 was 10.7 µM (inactive) with IGROV-1; 3.21 µM (inactive) in the assay on HL-60; 2.25 µM (inactive) with LOX IMVI; 4.19 µM (inactive) in the assay on CCRF-CEM; 2.98 µM (inactive) in the assay with NCI-H23; 11.4 µM (inactive) in the assay on OVCAR-5. Besides, the GI50 in the assay on HOP-62 is 0.724 µM (active); with NCI-H226, 3.19 µM (inactive); in the assay with KM12 it was 2.34 µM (inactive); with 786-0 it was 1.09 µM (active); in the assay on EKVX, 6.04 µM (inactive); with MCF7, 3.13 µM (inactive). Besides, the GI50 in the assay on SK-MEL-28 was 8.2 µM (inactive); in the assay with T47D, 1.01 µM (active).

As for `CC1NC(/C(=C/c2ccccc2O)NC(=O)c2ccccc2)OC1=O` (stereo not given), the GI50 was > 50 µM (inactive) in the assay on COLO 205; > 50 µM (inactive) in the assay with OVCAR-3; > 50 µM (inactive) in the assay with TK-10; 11 µM (inactive) in the assay on HOP-92; > 50 µM (inactive) in the assay with OVCAR-4; 39.7 µM (inactive) with SK-MEL-5. The GI50 in the assay with IGROV-1 is 14 µM (inactive); with HL-60 it was 23.3 µM (inactive); in the assay with LOX IMVI it was > 50 µM (inactive); in the assay on CCRF-CEM it was > 50 µM (inactive); in the assay on NCI-H23, > 50 µM (inactive); in the assay on OVCAR-5, > 50 µM (inactive). For the same compound, the GI50 with HOP-62 is 16.1 µM (inactive); in the assay with NCI-H226 it was > 50 µM (inactive); in the assay with KM12, 4.74 µM (inactive); with 786-0, 16.3 µM (inactive); in the assay with EKVX, 30.4 µM (inactive); in the assay on MCF7 it was 1.47 µM (inactive). The GI50 was > 50 µM (inactive) in the assay on SK-MEL-28 and 27.7 µM (inactive) with T47D.

On to `CCn1c(=N)sc2nc3ccccc3n2c1=O`, for which the GI50 with COLO 205, in the assay on OVCAR-3, in the assay on TK-10, in the assay with HOP-92, in the assay on OVCAR-4 and in the assay with SK-MEL-5 was > 100 µM (inactive) in each case. For the same compound, the GI50 with IGROV-1 was > 100 µM (inactive); in the assay on HL-60, > 100 µM (inactive); with LOX IMVI it was > 100 µM (inactive); with CCRF-CEM, 90.8 µM (inactive); with NCI-H23, > 100 µM (inactive); in the assay with OVCAR-5 it was > 100 µM (inactive). The GI50 is > 100 µM (inactive) in the assay with HOP-62; > 100 µM (inactive) with NCI-H226; > 100 µM (inactive) with KM12; > 100 µM (inactive) with 786-0; > 100 µM (inactive) in the assay with EKVX; 9.48 µM (inactive) with MCF7. Further, the GI50 in the assay with SK-MEL-28 and in the assay on T47D was > 100 µM (inactive) throughout.

With `O=C(NC(=O)c1ccccc1[N+](=O)[O-])Nc1ccc(Oc2ncc(Cl)cn2)c(C(F)(F)F)c1`, the GI50 in the assay with COLO 205 was 0.0184 µM (active); with OVCAR-3, < 0.01 µM (active); in the assay with TK-10, 20.1 µM (inactive); with HOP-92, < 0.01 µM (active); with OVCAR-4, 1.6 µM (inactive); in the assay on SK-MEL-5 it was < 0.01 µM (active). For the same compound, the GI50 with IGROV-1 is 0.0213 µM (active); with HL-60, < 0.01 µM (active); with LOX IMVI it was 0.0262 µM (active); in the assay on CCRF-CEM, 0.0154 µM (active); with NCI-H23, 0.0257 µM (active); in the assay on OVCAR-5, 0.0119 µM (active). Also, the GI50 in the assay with HOP-62 was 0.0181 µM (active); in the assay on NCI-H226, 0.0191 µM (active); with KM12 it was < 0.01 µM (active); in the assay with 786-0, < 0.01 µM (active); in the assay on EKVX it was 0.126 µM (active); in the assay with MCF7 it was < 0.01 µM (active). Moreover, the GI50 with SK-MEL-28 is < 0.0104 µM (active); with T47D, 22.1 µM (inactive).

Turning to `O=C1Nc2ccccc2/C1=C1/Nc2ccccc2/C1=N/OCCO`, the GI50 with COLO 205 is 3.99 µM (inactive); in the assay on OVCAR-3, 1.51 µM (inactive); in the assay with TK-10, 9.73 µM (inactive); with HOP-92, > 100 µM (inactive); in the assay with OVCAR-4 it was > 100 µM (inactive); with SK-MEL-5 it was 0.771 µM (active). The GI50 in the assay with IGROV-1 is 0.274 µM (active); with HL-60 it was 3.87 µM (inactive); in the assay on LOX IMVI, 0.69 µM (active); with CCRF-CEM, > 100 µM (inactive); in the assay with NCI-H23, 0.656 µM (active); with OVCAR-5 it was > 100 µM (inactive). Further, the GI50 was > 100 µM (inactive) with HOP-62; > 100 µM (inactive) in the assay with NCI-H226; 0.149 µM (active) in the assay with KM12; 13 µM (inactive) in the assay on 786-0; 0.662 µM (active) with EKVX; 1.86 µM (inactive) in the assay on MCF7. In addition, the GI50 in the assay on SK-MEL-28 was > 100 µM (inactive); with T47D, 5.62 µM (inactive).

As to `O=C(/C=C(O)/C(=C/C(=O)c1ccccc1)NN=C(c1ccccc1)c1ccccc1)c1ccccc1`, the GI50 with COLO 205 was 40.6 µM (inactive); in the assay on OVCAR-3, 18.3 µM (inactive); in the assay on TK-10, 28.4 µM (inactive); in the assay on HOP-92, 60.4 µM (inactive); in the assay on OVCAR-4, 38.4 µM (inactive); with SK-MEL-5, 18.7 µM (inactive). Also, the GI50 in the assay with IGROV-1 is 36.9 µM (inactive); with HL-60, 1.57 µM (inactive); in the assay on LOX IMVI, 38.3 µM (inactive); with CCRF-CEM it was 3.3 µM (inactive); with NCI-H23, 24 µM (inactive); in the assay with OVCAR-5 it was > 100 µM (inactive). For the same compound, the GI50 with HOP-62 is 21 µM (inactive); with NCI-H226, 24.9 µM (inactive); in the assay with KM12, 42.3 µM (inactive); with 786-0, 31.1 µM (inactive); in the assay with EKVX, > 100 µM (inactive); in the assay with MCF7, 34.4 µM (inactive). Besides, the GI50 is 51.6 µM (inactive) in the assay on SK-MEL-28 and 32.4 µM (inactive) with T47D.

With `C=C(C)CC1=C(OCC)C(OC)(OCC)C1=O` (stereo not given), the GI50 with COLO 205, with OVCAR-3, in the assay on TK-10, in the assay on HOP-92, in the assay on OVCAR-4 and in the assay on SK-MEL-5 was > 100 µM (inactive) each time. Further, the GI50 in the assay on IGROV-1, with HL-60, with LOX IMVI, in the assay on CCRF-CEM, in the assay on NCI-H23 and with OVCAR-5 was > 100 µM (inactive) each time. Besides, the GI50 with HOP-62, with NCI-H226, in the assay with KM12, in the assay on 786-0, with EKVX and in the assay with MCF7 was > 100 µM (inactive) throughout. The GI50 in the assay with SK-MEL-28 and with T47D was > 100 µM (inactive) each time.

Regarding `Cn1c2c(c3ccccc3c1=O)C(=O)c1ccccc1-2`, the GI50 in the assay with COLO 205 was 20 µM (inactive); in the assay with OVCAR-3 it was 76.4 µM (inactive); in the assay on TK-10, 21.4 µM (inactive); in the assay on HOP-92, > 100 µM (inactive); with OVCAR-4 it was 29.9 µM (inactive); in the assay on SK-MEL-5 it was 29.9 µM (inactive). Also, the GI50 is > 100 µM (inactive) in the assay with IGROV-1; 6.93 µM (inactive) in the assay on HL-60; 27.2 µM (inactive) in the assay with LOX IMVI; > 100 µM (inactive) in the assay on CCRF-CEM; 30.8 µM (inactive) in the assay on NCI-H23; > 100 µM (inactive) in the assay with OVCAR-5. The GI50 with HOP-62 was 18.9 µM (inactive); in the assay with NCI-H226, 63.8 µM (inactive); with KM12, > 100 µM (inactive); in the assay on 786-0 it was 17.9 µM (inactive); with EKVX it was 20.6 µM (inactive); with MCF7, 72.9 µM (inactive). Moreover, the GI50 in the assay on SK-MEL-28 and in the assay with T47D was > 100 µM (inactive) throughout.

Regarding `CCN(c1cccc(NC(=S)Nc2ccccc2N(CC)c2cc(-c3ccccc3)no2)c1)c1cc(-c2ccccc2)no1`, the GI50 in the assay on COLO 205, in the assay on OVCAR-3, in the assay with TK-10, in the assay with HOP-92, with OVCAR-4 and in the assay with SK-MEL-5 was > 100 µM (inactive) each time. The GI50 with IGROV-1, with HL-60, with LOX IMVI, in the assay with CCRF-CEM, in the assay with NCI-H23 and in the assay on OVCAR-5 was > 100 µM (inactive) in each case. In addition, the GI50 in the assay on HOP-62, in the assay on NCI-H226, in the assay on KM12, in the assay on 786-0, with EKVX and in the assay with MCF7 was > 100 µM (inactive) each time. The GI50 with SK-MEL-28 and in the assay on T47D was > 100 µM (inactive) in each case.

As to `CC(NNC(=O)c1ccncc1)c1ccc(Cl)cc1Cl` (stereo not given), the GI50 is > 100 µM (inactive) in the assay on COLO 205; > 100 µM (inactive) in the assay on OVCAR-3; > 100 µM (inactive) with TK-10; 70.6 µM (inactive) with HOP-92; > 100 µM (inactive) in the assay with OVCAR-4; 67.3 µM (inactive) in the assay on SK-MEL-5. Besides, the GI50 is > 100 µM (inactive) with IGROV-1; 46.5 µM (inactive) with HL-60; 86.5 µM (inactive) in the assay with LOX IMVI; 49.4 µM (inactive) with CCRF-CEM; > 100 µM (inactive) with NCI-H23; > 100 µM (inactive) with OVCAR-5. Also, the GI50 in the assay on HOP-62 was 88.5 µM (inactive); with NCI-H226, > 100 µM (inactive); with KM12, 49.3 µM (inactive); in the assay with 786-0, > 100 µM (inactive); in the assay on EKVX it was > 100 µM (inactive); with MCF7 it was > 100 µM (inactive). For the same compound, the GI50 in the assay on SK-MEL-28 is > 100 µM (inactive); in the assay with T47D, 51.9 µM (inactive).

The values are drawn from ChEMBL document CHEMBL1201862, “PubChem BioAssay data set” (2004).
